Results published in patent publication US5468734A, “Prophylactic and remedial preparation for diseases attendant on hyperglycemia, and wholesome food” (Godo Shusei Co., Ltd., priority 1992, dated 1995).
Entries after “also recorded” stand apart in the source; their conditions may differ. Where two headings read alike, the source gives them in different places.

How the values were obtained:
[1] = in vivo; cited from earlier work
[2] = type: in vivo, ICR male mice
Excerpt: (Action to depress increase in body weight of mice)
ICR male mice after the elapse of 5 weeks from their birth were used in proportions of 10 mice per group.
Mice of a control group were caused to freely ingest the same feed as those used in the run groups except that L-arabinose was not added.
The mice of each group were separately weighed after 10 days, 20 days, 30 days and 60 days from the beginning of the ingestion to determine their weight increases from the initial weights, thereby calculating an average value of the weights increased in each group. The amounts of the feeds and water ingested were also determined.

[3] = test system: maltase (carbohydrase derived from rabbit small intestine mucous membrane); experiment: Action to inhibit the hydrolytic activity of homogenate prepared from rabbit small intestine mucous membrane: maltase inhibition; type: biochemical; details: for Maltase inhibition rate: substrate maltose 20 mM, pH 6.8, 37° C., 15 minutes
[4] = molecular target: T1, sucrase (carbohydrase derived from rabbit small intestine mucous membrane) (Oryctolagus cuniculus, UniProt P07768); experiment: Action to inhibit the hydrolytic activity of homogenate prepared from rabbit small intestine mucous membrane: sucrase inhibition; type: biochemical
T1 construct: suspended again in a 10 mM potassium phosphate buffer (pH: 7.0), thereby obtaining a crude enzyme suspension; from tissue; host or cells: rabbit small intestine (title: mucous membrane), homogenate, 60,000×g precipitate

rise in blood sugar [5] = experiment: Action to depress the rise in blood sugar after starch loading to mice; type: in vivo, ICR male mice; details: starch 1 g/kg; for Rise in blood sugar: average ± standard error
rise in blood sugar [6] = experiment: Action to depress the rise in blood sugar after sucrose loading to mice; type: in vivo, ICR male mice; details: for Rise in blood sugar: average ± standard error
Excerpt: (Action to depress the rise in blood sugar after carbohydrate loading)
ICR male mice (weight 30-35 g) were used in proportions of 5 mice per group.
After causing the mice to fast, sucrose or starch was orally administered in a proportion of 1 g/kg to the mice of each group, and at the same time substances to be tested were orally given to mice of their corresponding groups.
Blood was collected from the retroorbital sinus of each mouse before carbohydrate loading and upon elapsed times of 30 minutes, 60 minutes and 120 minutes after the loading to determine the concentration of glucose in the blood plasma by the glucose oxidase method.

[7] = 0.5%, 1.0%, 2.0% in feed, during the experiment

T1 sequence (P07768 1008-1827 limits assumed): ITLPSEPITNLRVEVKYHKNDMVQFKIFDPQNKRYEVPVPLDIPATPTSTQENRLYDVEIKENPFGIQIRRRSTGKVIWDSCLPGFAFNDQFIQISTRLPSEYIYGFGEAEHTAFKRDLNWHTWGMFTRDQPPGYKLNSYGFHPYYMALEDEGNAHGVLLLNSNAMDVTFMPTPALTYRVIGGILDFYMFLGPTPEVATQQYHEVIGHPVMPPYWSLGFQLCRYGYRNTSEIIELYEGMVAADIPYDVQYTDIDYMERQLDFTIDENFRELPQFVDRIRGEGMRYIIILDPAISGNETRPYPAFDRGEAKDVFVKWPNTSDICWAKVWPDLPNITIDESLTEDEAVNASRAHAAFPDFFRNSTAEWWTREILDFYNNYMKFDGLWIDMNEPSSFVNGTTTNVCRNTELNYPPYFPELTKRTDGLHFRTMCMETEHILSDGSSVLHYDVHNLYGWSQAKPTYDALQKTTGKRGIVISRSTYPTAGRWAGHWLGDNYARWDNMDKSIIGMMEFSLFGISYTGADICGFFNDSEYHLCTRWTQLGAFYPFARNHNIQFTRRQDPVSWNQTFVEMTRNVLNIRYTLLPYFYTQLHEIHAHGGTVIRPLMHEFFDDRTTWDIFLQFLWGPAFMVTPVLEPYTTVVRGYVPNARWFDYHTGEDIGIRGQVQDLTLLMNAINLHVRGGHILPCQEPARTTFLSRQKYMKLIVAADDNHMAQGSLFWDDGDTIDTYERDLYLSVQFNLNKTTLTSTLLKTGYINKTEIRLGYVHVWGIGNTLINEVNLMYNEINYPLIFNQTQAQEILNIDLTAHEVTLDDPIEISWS
T1 sequence (P07768 2-1007 partner limits assumed): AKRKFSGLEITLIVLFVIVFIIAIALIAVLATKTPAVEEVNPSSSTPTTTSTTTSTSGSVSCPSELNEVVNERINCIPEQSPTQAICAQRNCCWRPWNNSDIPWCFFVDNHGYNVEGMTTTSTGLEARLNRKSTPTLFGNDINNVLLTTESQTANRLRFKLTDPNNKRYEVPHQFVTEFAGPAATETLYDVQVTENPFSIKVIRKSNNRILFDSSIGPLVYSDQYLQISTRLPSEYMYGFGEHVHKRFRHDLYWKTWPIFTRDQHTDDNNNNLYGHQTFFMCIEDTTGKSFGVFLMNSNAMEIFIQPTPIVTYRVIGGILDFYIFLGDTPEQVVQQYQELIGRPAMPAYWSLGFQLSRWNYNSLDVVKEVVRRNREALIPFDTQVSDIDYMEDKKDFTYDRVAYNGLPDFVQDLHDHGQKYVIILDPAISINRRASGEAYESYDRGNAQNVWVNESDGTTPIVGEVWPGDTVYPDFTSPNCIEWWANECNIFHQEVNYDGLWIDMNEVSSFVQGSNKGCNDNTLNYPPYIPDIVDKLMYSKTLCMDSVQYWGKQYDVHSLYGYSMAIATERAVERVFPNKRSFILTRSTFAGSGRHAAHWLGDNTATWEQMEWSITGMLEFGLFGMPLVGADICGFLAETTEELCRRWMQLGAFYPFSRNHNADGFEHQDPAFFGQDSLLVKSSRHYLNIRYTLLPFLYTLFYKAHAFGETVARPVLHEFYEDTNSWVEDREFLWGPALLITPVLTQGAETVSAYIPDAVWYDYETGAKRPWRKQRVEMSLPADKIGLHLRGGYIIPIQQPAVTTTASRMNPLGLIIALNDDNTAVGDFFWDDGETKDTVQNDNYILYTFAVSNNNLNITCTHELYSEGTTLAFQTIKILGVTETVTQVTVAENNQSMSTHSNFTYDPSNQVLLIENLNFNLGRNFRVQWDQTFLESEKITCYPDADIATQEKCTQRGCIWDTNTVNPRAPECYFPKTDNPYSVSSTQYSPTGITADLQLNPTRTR

## O=C[C@H](O)[C@@H](O)[C@@H](O)CO [L-Arabinose, L-arabinose]
[1]
  uptake from the digestive tract: hard to be taken up from the digestive tract
[2]; 0.5% in feed (Group 1 / A1), after 10 days
  Weight increase: 5.9 g
[2]; 0.5% in feed (Group 1 / A1), after 20 days
  Weight increase: 9.2 g
[2]; 0.5% in feed (Group 1 / A1), after 30 days
  Weight increase: 12.4 g
[2]; 0.5% in feed (Group 1 / A1), after 60 days
  Weight increase: 15.0 g
[2]; [7]
  death: no death at all
  general medical condition and behavior: no abnormality in general medical condition and behavior
[2]; 0.5%, 1.0%, 2.0% in feed, up to 60 days
  weight increase compared with control group (in words): less weight increases compared with the mice of the control group
[2]; 1.0% in feed (Group 2 / A2), after 10 days
  Weight increase: 5.3 g
[2]; 1.0% in feed (Group 2 / A2), after 20 days
  Weight increase: 8.0 g
[2]; 1.0% in feed (Group 2 / A2), after 30 days
  Weight increase: 11.7 g
[2]; 1.0% in feed (Group 2 / A2), after 60 days
  Weight increase: 13.8 g
[2]; 2.0% in feed (Group 3 / A3), after 10 days
  Weight increase: 4.7 g
[2]; 2.0% in feed (Group 3 / A3), after 20 days
  Weight increase: 7.2 g
[2]; 2.0% in feed (Group 3 / A3), after 30 days
  Weight increase: 10.2 g
[2]; 2.0% in feed (Group 3 / A3), after 60 days
  Weight increase: 12.1 g
[3]
  maltase-inhibiting action (in words): strong sucrase-inhibiting action and maltase-inhibiting action
[3]; 25 mg/dl
  Maltase inhibition rate: 28.5%
[3]; 50 mg/dl
  Maltase inhibition rate: 35.8%
[3]; 100 mg/dl
  Maltase inhibition rate: 45.7%
[3]; 200 mg/dl
  Maltase inhibition rate: 47.4%
[4]
  sucrase-inhibiting action (in words): strong sucrase-inhibiting action
[4]; 0.25 h, 25 mg/dl, substrate sucrose 20 mM, pH 6.8, 37° C., 15 minutes, read-out: Sucrase inhibition rate
  inhibition at 250 µg/mL: 25.3%
[4]; 0.25 h, 50 mg/dl, substrate sucrose 20 mM, pH 6.8, 37° C., 15 minutes, read-out: Sucrase inhibition rate
  inhibition at 500 µg/mL: 37.8%
[4]; 0.25 h, 100 mg/dl, substrate sucrose 20 mM, pH 6.8, 37° C., 15 minutes, read-out: Sucrase inhibition rate
  inhibition at 1000 µg/mL: 52%
[4]; 0.25 h, 200 mg/dl, substrate sucrose 20 mM, pH 6.8, 37° C., 15 minutes, read-out: Sucrase inhibition rate
  inhibition at 2000 µg/mL: 66.3%
Rise in blood sugar [5]
  depressing action on the rise in blood sugar due to starch loading (in words): depressing action on the rise in blood sugar due to starch loading in dependence on the dose
Rise in blood sugar [5]; dose 25 mg/kg oral, after 30 min.
  Rise in blood sugar: 91.1 Δmg/dl
Rise in blood sugar [5]; dose 25 mg/kg oral, after 60 min.
  Rise in blood sugar: 68.5 Δmg/dl
Rise in blood sugar [5]; dose 25 mg/kg oral, after 120 min.
  Rise in blood sugar: 29.8 Δmg/dl
Rise in blood sugar [5]; dose 50 mg/kg oral, after 30 min.
  Rise in blood sugar: 71.4 Δmg/dl
Rise in blood sugar [5]; dose 50 mg/kg oral, after 60 min.
  Rise in blood sugar: 54.6 Δmg/dl
Rise in blood sugar [5]; dose 100 mg/kg oral, after 30 min.
  Rise in blood sugar: 59.6 Δmg/dl
Rise in blood sugar [5]; dose 100 mg/kg oral, after 60 min.
  Rise in blood sugar: 48.3 Δmg/dl
Rise in blood sugar [5]; dose 100 mg/kg oral, after 120 min.
  Rise in blood sugar: 24.6 Δmg/dl
Rise in blood sugar [6]; sucrose 1 g/kg, dose 25 mg/kg oral, after 30 min.
  Rise in blood sugar: 71.7 Δmg/dl
Rise in blood sugar [6]; sucrose 1 g/kg, dose 25 mg/kg oral, after 60 min.
  Rise in blood sugar: 49.4 Δmg/dl
Rise in blood sugar [6]; sucrose 1 g/kg, dose 50 mg/kg oral, after 30 min.
  Rise in blood sugar: 62.9 Δmg/dl
Rise in blood sugar [6]; sucrose 1 g/kg, dose 50 mg/kg oral, after 60 min.
  Rise in blood sugar: 37.3 Δmg/dl
Rise in blood sugar [6]; sucrose 1 g/kg, dose 50 mg/kg oral, after 120 min.
  Rise in blood sugar: 21.5 Δmg/dl
Rise in blood sugar [6]; sucrose 1 g/kg, dose 100 mg/kg oral, after 30 min.
  Rise in blood sugar: 41.8 Δmg/dl
Rise in blood sugar [6]; sucrose 1 g/kg, dose 100 mg/kg oral, after 60 min.
  Rise in blood sugar: 30.4 Δmg/dl
Rise in blood sugar [6]; sucrose 1 g/kg, dose 100 mg/kg oral, after 120 min.
  Rise in blood sugar: 20.3 Δmg/dl
Rise in blood sugar [6]; sucrose 1 g/kg, orally 25, 50 and 100 mg/kg (L-arabinose, D-xylose) or 100 mg/kg (others)
  action to depress the rise in blood sugar due to sucrose loading (in words): depressed in dependence on the dose
Rise in blood sugar [6]; sucrose or starch loading, summary statement
  action to depress the rise in blood sugar for sucrose or starch loading (in words): remarkably effective in depressing the rise in blood sugar after carbohydrate loading; also recorded: effective action to depress the rise in blood sugar
